# Data taken from patent EP4796540A2, “N-SULFONAMIDE NITROGEN-CONTAINING FUSED HETEROCYCLIC COMPOUND, AND APPLICATION THEREOF” (priority 2023, dated 2025).
# Values joined by “and” are separate entries in the source; they are usually repeats but may differ in a detail not shown here. Equal values may be shown once.
# Assays:
# [1] = In vivo pharmacokinetic study in rats; conditions: rat, plasma; SD rats (male), IV 1 mg/kg; read-out: Clint
# Experimental: 1. Experimental purpose: To test the pharmacokinetics of compounds in SD rats. 2. Experimental instrument and materials: Animal: SD rats (male) Instrument: Intravenous injection: 40% HP-β-CD in water; intragastric administration: 0.2% HPC + 0.5% Tween80 in water. 6 male rats. Fasting treatment was performed in the evening before the administration, with free access to water. During the experiment, the rats were allowed to eat and drink freely, and administered by intravenous injection or gavage. After administration, the animal status was observed, and abnormal behaviors were recorded. Blood was collected via jugular vein puncture at 0.0833, 0.25, 1, 2, 4, 8, and 24 hours after intravenous injection; Blood was collected via jugular vein puncture at 0.25, 0.5, 1, 2, 4, 6, 8, and 24 hours after intragastric administration. 50 µL of plasma sample was taken and added with 500 µL of acetonitrile (containing dexamethasone as an internal standard) to precipitate proteins. The mixture was centrifuged at 4°C and 4000 rpm for 20 minutes, and 300 µL of the supernatant was taken and mixed with 300 µL of Watsons aqueous solution in a 96-well plate. […] Unknown samples were calculated by the standard curve. Pharmacokinetic parameters were calculated by the non-compartmental analysis model of WinNonlin 8.2 software and were presented in a report, including Clint, Cmax, AUC, etc. […]
# [2] = test system: human gastric cancer NUGC-3 xenograft; experiment: In vivo efficacy study in human gastric cancer NUGC-3 xenograft rat model; set-up: species or system B-Rag2/IL2rg KO SD rats; conditions: QD × 28 days, p.o., rats
# Experimental: 1. Experimental purpose: To test the in vivo anti-tumor activity of compounds in the subcutaneous human gastric cancer NUGC-3 xenograft model in female B-Rag2/IL2rg KO SD rats. 2. Experimental materials: Animals: 7 to 9 weeks old female B-Rag2/IL2rg KO SD rats; Reagents:
# Vehicle: 5% DMSO/10% Solutol HS 15/85% pH 4.65 ± 0.10 acetate buffer;
# Cell culture: NUGC-3 cells were cultured in RPMI-1640 medium containing 10% FBS.
# Molding and grouping: NUGC-3 cells in the exponential growth phase (1 × 10^7) were harvested, resuspended in 0.2 mL of PBS and Matrigel (1:1), and then inoculated subcutaneously into the right flank of B-Rag2/IL2rg KO SD rats to establish a subcutaneous xenograft model. Rats were observed daily for healthy status and tumor growth after cell inoculation. On the 10th day after inoculation, 24 animals were selected, grouped, and the tumor volume of the animals in the group was approximately 199.0 mm^3. The study was divided into 4 groups, with 6 rats in each group, and the administration was performed on the same day (see Table 12).
# 4. Experimental design: Table 12 is the grouping and administration information for the efficacy study. Rats in the G1 group were orally administered vehicle control (5% DMSO/10% Solutol HS 15/85% pH 4.65 ± 0.10 acetate buffer) once a day for a total of 28 days. Rats in the G2 group were orally administered Cpd-2 once a day at a dose of 6.25 mg/kg for a total of 28 days. Rats in the G3 group were orally administered Cpd-2 once a day at a dose of 12.5 mg/kg for a total of 28 days. Rats in the G4 group were orally administered Cpd-2 once a day at a dose of 25 mg/kg for a total of 28 days. Table 12. In vivo efficacy study design of NUGC-3 xenograft rat model
# Experimental observation: The health status and mortality of the animals were monitored daily. Routine checks included the effect of tumor growth and drug treatment on animals' normal behavior such as mobility, food and water consumption, body weight gain/loss, eye/hair matting and any other abnormal effect. The number of deaths and side effects of the animals in the group were recorded based on the number of the animals in each group. Clinical symptoms observed during the trial were recorded in the raw data. Tumor volume calculation formula: Tumor volume (mm^3) = 0.5 × (tumor long diameter × tumor short diameter^2). During the research process, the entire administration process as well as tumor and body weight measurements were conducted in a Laminar Flow Cabinet.
# Data processing: Percentage of tumor growth inhibition TGITV (%): TGITV % = (1 - ΔT/ΔC) × 100%; Wherein ΔC is the tumor volume Ct - C0 for the control group, C0 is the average tumor volume of the control group at the time of grouping, and Ct is the average tumor volume of the control group after treatment; ΔT is the tumor volume Tt - T0 for the treatment group, T0 is the average tumor volume of the treatment group at the time of grouping, and Tt is the average tumor volume of the treatment group after treatment.
# Statistical analysis: Tumor volume and animal body weight results are expressed in Mean ± SEM. Tumor volumes between different groups were statistically compared and analyzed. All statistical analyses were completed in https://d2k.bio/Efficacy/Invivo. The wilcox.test nominal method was used to compare whether there was a significant difference in tumor volume or tumor weight between groups, where p ≥ 0.05 was considered as having no significant difference, p < 0.05 was considered as having a significant difference, and p < 0.01 was considered as having an extremely significant difference.
structure (smiles),measurement,setting,value
"[2H]C([2H])([2H])Oc1nc(C(=O)NS(C)(=O)=O)ccc1NCC#Cc1cc2c(N[C@@H]3CCN(C)C[C@@H]3F)cccn2c1CC(F)(F)F [Cpd-2, 5-((3-(8-(((3S,4R)-3-Fluoro-1-methylpiperidin-4-yl)amino)-3-(2,2,2-trifluoroethyl)indolizin-2-yl)prop-2-yn-1-yl)amino)-6-(methoxy-d3)-N-(methylsulfonyl)picolinamide]",clearance,[1],0.198 L/h/kg
same,TGITV (%) (at 28 days),[2]; 6.25 mg/kg,92.9%
same,Tumor volume (mm^3) (Mean ± SEM) (at 28 days),[2]; 6.25 mg/kg,395.0 mm^3 and 395.0 ± 63.1 mm^3
same,TGITV (%) (at 28 days),[2]; 12.5 mg/kg,102.9%
same,Tumor volume (mm^3) (Mean ± SEM) (at 28 days),[2]; 12.5 mg/kg,119.2 mm^3 and 119.2 ± 10.2 mm^3
same,TGITV (%) (at 28 days),[2]; 25 mg/kg,104.7%
same,Tumor volume (mm^3) (Mean ± SEM) (at 28 days),[2]; 25 mg/kg,70.1 mm^3 and 70.1 ± 14.9 mm^3
